Values of other authors in patent US20210030671A1, “LIQUID DOSAGE FORMS OF CINACALCET OR SALT THEREOF” (FTF PHARMA PRIVATE LIMITED, priority 2018, published 2021).
Structures can show the parent of a compound that is named as a salt. Where two headings read alike, the source gives them in different places.

solubility (in methanol or 95% ethanol)	solubility (in water)	Structure (SMILES)
soluble	slightly soluble	C[C@@H](NCCCc1cccc(C(F)(F)F)c1)c1cccc2ccccc12 [Cinacalcet hydrochloride]
	< 1 µg/mL	C[C@@H](NCCCc1cccc(C(F)(F)F)c1)c1cccc2ccccc12 [Cinacalcet, N-[1-(R)-(−)-(1-naphthyl)ethyl]-3-[3-(trifluoromethyl)phenyl]-1-aminopropane]
